IC50 data for three molecules are collected here from ChEMBL document CHEMBL1143196, “Discovery of kinase inhibitors by high-throughput docking and scoring based on a transferable linear interaction energy model” (J Med Chem, 2008).

Molecules are shown by their SMILES.

Test [1] has as its target Cyclin-dependent kinase 2 (Homo sapiens, UniProt P24941). The experiment in a line: Inhibition of CDK2 by FRET assay.
In test [2] the target is Cyclin-dependent kinase 1/cyclin B1 (Homo sapiens, UniProt P06493). The experiment in a line: Inhibition of CDK1/Cyclin B. The format is protein-complex assay.
Cyclin-dependent kinase 1/cyclin B1, sequence (P06493 whole entry): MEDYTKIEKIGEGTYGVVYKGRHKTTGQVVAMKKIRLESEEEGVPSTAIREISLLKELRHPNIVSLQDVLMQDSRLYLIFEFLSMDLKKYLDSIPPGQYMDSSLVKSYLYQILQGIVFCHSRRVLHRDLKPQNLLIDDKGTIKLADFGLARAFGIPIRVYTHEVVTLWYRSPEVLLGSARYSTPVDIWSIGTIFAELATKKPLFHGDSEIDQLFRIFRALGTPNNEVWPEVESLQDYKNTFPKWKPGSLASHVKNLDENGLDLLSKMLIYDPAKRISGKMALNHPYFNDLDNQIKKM
Cyclin-dependent kinase 1/cyclin B1, sequence (P14635 whole entry, further chain): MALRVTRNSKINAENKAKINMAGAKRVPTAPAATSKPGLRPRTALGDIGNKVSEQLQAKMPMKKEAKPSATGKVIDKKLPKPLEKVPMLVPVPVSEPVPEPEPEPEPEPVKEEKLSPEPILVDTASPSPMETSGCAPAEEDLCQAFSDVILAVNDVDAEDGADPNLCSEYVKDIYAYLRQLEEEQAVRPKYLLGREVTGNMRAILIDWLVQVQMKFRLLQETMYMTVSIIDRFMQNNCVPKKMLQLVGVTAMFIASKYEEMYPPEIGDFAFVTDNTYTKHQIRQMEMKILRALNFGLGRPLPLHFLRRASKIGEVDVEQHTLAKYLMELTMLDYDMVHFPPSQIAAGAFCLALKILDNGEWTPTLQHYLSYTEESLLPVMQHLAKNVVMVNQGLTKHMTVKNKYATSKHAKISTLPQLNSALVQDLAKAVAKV
Test [3] is described as follows: Inhibition of CDK2/Cyclin A.
For a further test, the target named is T1, Ephrin type-B receptor 4 (Homo sapiens, UniProt P54760).
T1 sequence (P54760 whole entry): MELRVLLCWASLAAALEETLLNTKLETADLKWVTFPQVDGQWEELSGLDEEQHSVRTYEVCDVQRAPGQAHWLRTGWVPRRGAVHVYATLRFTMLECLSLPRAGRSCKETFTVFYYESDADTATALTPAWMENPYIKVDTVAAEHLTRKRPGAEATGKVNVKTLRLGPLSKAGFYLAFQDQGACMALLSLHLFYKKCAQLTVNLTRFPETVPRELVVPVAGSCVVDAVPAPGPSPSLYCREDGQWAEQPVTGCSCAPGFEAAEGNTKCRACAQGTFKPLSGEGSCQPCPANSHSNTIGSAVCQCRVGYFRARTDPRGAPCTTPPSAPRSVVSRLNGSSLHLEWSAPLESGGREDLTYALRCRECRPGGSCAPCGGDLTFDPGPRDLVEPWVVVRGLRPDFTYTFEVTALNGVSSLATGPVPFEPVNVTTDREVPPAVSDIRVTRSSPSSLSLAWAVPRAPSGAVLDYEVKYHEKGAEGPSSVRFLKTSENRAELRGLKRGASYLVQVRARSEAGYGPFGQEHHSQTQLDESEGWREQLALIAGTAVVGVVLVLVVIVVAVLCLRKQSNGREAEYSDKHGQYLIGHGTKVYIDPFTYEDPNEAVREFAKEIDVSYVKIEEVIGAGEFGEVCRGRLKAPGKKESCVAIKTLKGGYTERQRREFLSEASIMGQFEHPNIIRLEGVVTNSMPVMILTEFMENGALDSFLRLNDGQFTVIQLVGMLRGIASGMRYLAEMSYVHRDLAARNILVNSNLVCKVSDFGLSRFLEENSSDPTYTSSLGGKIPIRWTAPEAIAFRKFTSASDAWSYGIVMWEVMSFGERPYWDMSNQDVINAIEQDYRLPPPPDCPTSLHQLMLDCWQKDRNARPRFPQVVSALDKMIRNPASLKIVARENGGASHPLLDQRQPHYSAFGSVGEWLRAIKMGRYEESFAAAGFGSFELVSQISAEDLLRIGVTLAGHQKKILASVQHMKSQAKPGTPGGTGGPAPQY

As to `NC(=O)c1c(NC(=O)CN2C(=O)CCC2=O)sc2c1CCC2`, half-maximal inhibition in test [1] (IC50) was put at 7.5 µM.

Turning to `CCOC(C)(COc1nc(N)nc2[nH]cnc12)OCC`, the IC50 worked out at 36 µM in test [2] and 33 µM in test [3].

As to `Cn1c(=O)[nH]c(=O)c2c1nc1n(CCCCO)c(-c3ccccc3)cn21`, the IC50 against Ephrin type-B receptor 4 stood at 1.6 µM.
